Results published in PubChem BioAssay AID977613 (Broad Institute, 2014).
Calls of active or inactive are those of the source. No rule for the calls is given here.

What follows are compounds tested on Broad 7084-01 inhibitor HTS, set 2 (assay: single-concentration hits, screen 7084 set 2 (AID 977613);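 also: host cells are infected with parasite promastigotes that become internalized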).

| SMILES | active concentration |
| --- | --- |
| CC=Cc1ccc2n(c1=O)C[C@H]1[C@H](CO)[C@@H](C(=O)NCCC)N(Cc3cocn3)[C@@H]21 (mixture of isomers) | > 10 µM (inactive) |
| O=C(C[C@@H]1CC[C@@H]2[C@H](COC[C@H](O)CN2C(=O)c2ccc3c(c2)OCO3)O1)NC1CCC1 | > 10 µM (inactive) |
| CN1c2ccc(-c3ccc(C#N)cc3)cc2[C@@H]2[C@@H](CCN2C(=O)Nc2cccc(F)c2)[C@@H]1CO | > 10 µM (inactive) |
| COc1ccc2c3c([nH]c2c1)[C@@H](CO)NCC31CN(C(=O)Nc2ccc3c(c2)OCO3)C1 | > 10 µM (inactive) |
| CCNC(=O)C[C@H]1CC[C@@H]2[C@H](COC[C@H](O)CN2C(=O)C2CC2)O1 | > 10 µM (inactive) |
| O=C(C1CCOCC1)N1CC(=O)N2[C@@H](CO)[C@H](c3ccc(C#CCc4ccccc4)cc3)[C@@H]2C1 | > 10 µM (inactive) |
| CCS(=O)(=O)N1CC2(CN(C(=O)Cc3ccccn3)[C@H](CO)c3[nH]c4cc(OC)ccc4c32)C1 | > 10 µM (inactive) |
| COc1ccc(NC(=O)N2CCCCN3[C@H](C2)[C@@H](c2ccc(-c4ccccc4F)cc2)[C@@H]3CO)cc1 | > 10 µM (inactive) |
| COc1cccc(C(=O)Nc2ccc3c(c2)C(=O)N(C)[C@H]2CC[C@@H](CC(=O)NCCCN4CCOCC4)O[C@@H]2CO3)c1 | > 10 µM (inactive) |
| COc1cccc(-c2ccc3c(c2)[C@H]2[C@H](CCN2S(=O)(=O)c2cn(C)cn2)[C@H](CO)N3)c1 | > 10 µM (inactive) |
| CN1C(=O)c2cc(NC(=O)c3cccc(F)c3)ccc2OC[C@H]2O[C@@H](CC(=O)NCC3CCCCC3)CC[C@@H]21 | > 10 µM (inactive) |
| O=C(c1ccc2c(c1)OCO2)N1C[C@@H]2[C@H](c3ccccc31)[C@H](CO)N2C(=O)CC1CC1 | > 10 µM (inactive) |
| O=C(c1ccccn1)N1C[C@H]2[C@@H](c3ccccc31)[C@@H](CO)N2C(=O)Nc1ccccc1F | > 10 µM (inactive) |
| O=C(C[C@@H]1CC[C@@H]2[C@H](COC[C@@H](O)CN2C(=O)c2ccccc2F)O1)NCc1ccccc1 | > 10 µM (inactive) |
| CCS(=O)(=O)Nc1ccc2c(c1)C(=O)N(C)[C@@H]1CC[C@H](CC(=O)N[C@H]3CCN(Cc4ccccc4)C3)O[C@H]1CO2 | > 10 µM (inactive) |
| O=C(C1CCOCC1)N1CC(=O)N2[C@H](C1)[C@@H](c1ccc(C#CCc3ccccc3)cc1)[C@@H]2CO | > 10 µM (inactive) |
| COc1cccc(S(=O)(=O)N2CCCCN3[C@@H](CO)[C@@H](c4ccc(C#CCC(C)C)cc4)[C@@H]3C2)c1 | > 10 µM (inactive) |
| Cc1ccccc1-c1ccccc1[C@@H]1[C@H](C#N)N(C(=O)c2cccc(F)c2)[C@H]1CO | > 10 µM (inactive) |
| O=C(C[C@H]1CC[C@H]2[C@@H](COC[C@H](O)CN2C(=O)Nc2ccc(Cl)c(Cl)c2)O1)NCc1ccc(Cl)cc1 | > 10 µM (inactive) |
| CC(C)NC(=O)Nc1ccc2c(c1)C(=O)N(C)[C@H]1CC[C@H](CC(=O)NCc3ccc(F)cc3)O[C@H]1CO2 | > 10 µM (inactive) |
| O=C(C[C@@H]1CC[C@@H]2[C@H](COC[C@H](O)CN2Cc2nccs2)O1)NCc1ccccc1 | > 10 µM (inactive) |
| O=C(c1ccccc1)N1CC(=O)N2[C@H](CO)[C@@H](c3ccc(-c4ccccc4)cc3)[C@H]2C1 | > 10 µM (inactive) |
| O=C(CN1CCOCC1)N1CC(=O)N2[C@H](CO)[C@H](c3ccc(-c4cccc(F)c4)cc3)[C@@H]2C1 | > 10 µM (inactive) |
| COc1ccc2c3c([nH]c2c1)[C@H](CO)N(S(=O)(=O)c1ccc(C)cc1)CC31CCN(Cc2nccs2)CC1 | > 10 µM (inactive) |

| SMILES | active concentration |
| --- | --- |
| COc1ccc2c3c([nH]c2c1)[C@H](CO)N(C(=O)C1CCCCC1)CC31CCN(C)CC1 | > 10 µM (inactive) |
| CN1C(=O)c2cc(NS(C)(=O)=O)ccc2OC[C@H]2O[C@@H](CC(=O)NC3CCCCC3)CC[C@H]21 | > 10 µM (inactive) |
| COc1ccc(NC(=O)N2CC(=O)N3[C@H](C2)[C@@H](c2ccc(Br)cc2)[C@@H]3CO)cc1 | > 10 µM (inactive) |
| C[C@H](O)C#Cc1ccc([C@H]2[C@@H](CO)N3CCCCN(C(=O)c4ccc5c(c4)OCO5)C[C@@H]23)cc1 | > 10 µM (inactive) |
| O=C(C[C@@H]1CC[C@H]2[C@@H](COC[C@H](O)CN2S(=O)(=O)c2cccc(F)c2)O1)Nc1ccc(-c2ccccc2)cc1 | > 10 µM (inactive) |
| N#C[C@@H]1[C@H](c2ccccc2-c2ccc(F)cc2)[C@H](CO)N1C(=O)Cc1cccnc1 | > 10 µM (inactive) |
| O=S(=O)(c1ccccc1)N1CCCCN2[C@@H](CO)[C@H](c3ccc(C#CC4CCCC4)cc3)[C@@H]2C1 | > 10 µM (inactive) |
| COc1cccc(NC(=O)Nc2ccc3c(c2)C(=O)N(C)[C@H]2CC[C@H](CC(=O)NCCc4ccccc4)O[C@@H]2CO3)c1 | > 10 µM (inactive) |
| COc1ccc2c3c(n(C)c2c1)[C@H](CO)N(CC1CCOCC1)CC31CCN(C(=O)CN(C)C)CC1 | > 10 µM (inactive) |
| COc1cccc(-c2ccc([C@H]3[C@H]4CNCC(=O)N4[C@H]3CO)cc2)c1 | > 10 µM (inactive) |
| O=C(C[C@@H]1CC[C@@H]2[C@H](COC[C@H](O)CN2C(=O)Nc2cc(Cl)cc(Cl)c2)O1)NCC1CCCCC1 | > 10 µM (inactive) |
| CN1CCCCN2[C@H](CO)[C@H](c3ccc(-c4ccc(F)cc4)cc3)[C@@H]2C1 | > 10 µM (inactive) |
| COc1ccc(C#Cc2ccc([C@@H]3[C@@H](CO)N4C(=O)CN(C(=O)c5ccc(F)cc5)C[C@@H]34)cc2)cc1 | > 10 µM (inactive) |
| CCS(=O)(=O)N1CC2(C1)CN(S(=O)(=O)c1ccccc1)[C@H](CO)c1c2c2ccc(OC)cc2n1C | > 10 µM (inactive) |
| CN(C)C(=O)[C@H]1[C@H](CO)[C@H]2Cn3c(ccc(-c4cncnc4)c3=O)[C@H]2N1Cc1cc(F)ccc1F | > 10 µM (inactive) |
| O=C(C[C@H]1CC[C@H]2[C@@H](COC[C@@H](O)CN2CC2CC2)O1)NCc1ccc(Cl)cc1 | > 10 µM (inactive) |
| CCCNC(=O)N1CC(=O)N2[C@H](CO)[C@H](c3ccc(C#CCC4CCCC4)cc3)[C@@H]2C1 | > 10 µM (inactive) |
| O=C(c1cccc(F)c1)N1C[C@@H]2[C@H](c3ccccc31)[C@H](CO)N2Cc1cocn1 | > 10 µM (inactive) |
| C[C@H](NC(=O)[C@H]1[C@H](CO)[C@H]2Cn3c(ccc(-c4ccncc4)c3=O)[C@H]2N1C)c1ccccc1 | > 10 µM (inactive) |
| COCC(=O)N1CC[C@@H]2[C@H]1c1cc(-c3ccc(F)cc3)ccc1N(C)[C@@H]2CO | > 10 µM (inactive) |
| O=C(C1CCCCC1)N1CC(=O)N2[C@H](CO)[C@@H](c3ccc(-c4ccccc4F)cc3)[C@H]2C1 | > 10 µM (inactive) |
| COc1ccccc1C#Cc1ccc2c(c1)[C@@H]1[C@@H](CCN1C(C)=O)[C@@H](CO)N2C | > 10 µM (inactive) |
| O=C(c1ccccc1)N1CC(=O)N2[C@H](CO)[C@H](c3ccc(-c4ccccc4)cc3)[C@@H]2C1 | > 10 µM (inactive) |
| CCCNC(=O)N1CC(=O)N2[C@H](C1)[C@@H](c1ccc(-c3ccc(F)cc3)cc1)[C@@H]2CO | > 10 µM (inactive) |
